Source: article PMC9492542, “Brain-restricted mTOR inhibition with binary pharmacology” (Nature, 2022)
Several values for one entry are separate records, joined by “and”; a condition that tells them apart may be missing. Identical values can stand only once. Like-named read-outs stand apart in the source and are kept apart here.

What was measured:
GBM43 = test: Orthotopic intracranial GBM43-luciferase patient-derived glioblastoma xenograft; conditions: GBM43-Luc
mTOR [1] = test: mTOR signalling in mouse whole brain and skeletal muscle after single i.p. dose (immunoblot, insulin stimulated); format: in vivo; conditions: for p-4EBP1 Brain, fold relative to no insulin, normalized to GAPDH / p-4EBP1 Muscle, fold relative to no insulin, normalized to GAPDH / p-RPS6 Brain, fold relative to no insulin, normalized to GAPDH / p-RPS6 Muscle, fold relative to no insulin, normalized to GAPDH: RL1 1 mg/kg, RB 40 mg/kg, insulin 250 mU, listed as RB
Protocol: Whole brain and skeletal muscle were analyzed by immunoblot.

FKBP12 = biological target: T1, FKBP12 (Homo sapiens, UniProt P62942); test: Competition fluorescence polarization assay with FITC-rapamycin tracer; format: binding
T1 construct: His-tag (HRV 3C cleavable) (cleaved yes); made in house; host or cells: Escherichia coli BL21(DE3)
T1 sequence (P62942 whole entry): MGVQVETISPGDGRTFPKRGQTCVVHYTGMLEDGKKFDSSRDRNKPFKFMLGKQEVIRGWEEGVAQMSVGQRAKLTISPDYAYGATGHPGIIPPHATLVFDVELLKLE
Protocol: Compound binding affinity was determined using a competition fluorescence polarization assay. […] The assay buffer was 20 mM HEPES pH 7.5 and 0.01% Triton X-100. […] Data were fitted to a three-parameter sigmoidal curve to derive IC50 values. Ki of the compounds were calculated using a tool provided by S. Wang’s laboratory (http://www.umich.edu/~shaomengwanglab/software/calc_ki/index.html). Data were plotted in GraphPad Prism 9.0.

U87MG = test: Orthotopic intracranial U87MG-luciferase glioblastoma xenograft
human PBMCs = test: Proliferation of anti-CD3/anti-CD28 stimulated PBMCs (120 h); format: cell-based
NFAT = NFAT activation assay (Jurkat-Lucia NFAT luciferase reporter, PMA/ionomycin); format: cell-based
Protocol: Jurkat-Lucia NFAT cells were resuspended to 2 × 10^6 cells per ml in fresh growth medium and dispensed in 96-well tissue culture plates (Corning 3904; 180 µl per well). DMSO solutions of test compounds at 100× the test concentrations were added and the cells were incubated for 4 h at 37 °C. A 10× stimulation solution containing phorbol myristate acetate (100 ng ml^–1) and ionomycin (10 µg ml^–1) were added to each well (20 µl per well) except for the negative control wells, which were supplemented with 20 µl medium. Cells were incubated at 37 °C for 12 h. Cells (20 µl per well) were transferred into a white opaque 96-well plate (Corning 3912). TECAN Spark 20M plate reader equipped with an auto-injection system was primed with Lucia luciferase substrate solution and set with the following parameters: 50 µl of injection volume, end-point measurement with a 4-s delay time and 0.1-s integration time. Luciferase activity was measured with the settings above and normalized to DMSO-treated, stimulated cells. Data were plotted in GraphPad Prism 9.0.

mTOR [2] = test: Immunoblot analysis of mTOR signalling (p-S6, p-4EBP1) in MCF7 cells, incl. screen for blocking of rapamycin/RapaLink-1
[3] = U87MG-Luc, day 0, individual mice
[4] = U87MG-Luc, day 5, individual mice
[5] = U87MG-Luc, day 10, individual mice
[6] = U87MG-Luc, day 15, individual mice
[7] = U87MG-Luc, day 20, individual mice

## CO[C@H]1C[C@@H](C)C/C(C)=C/[C@@H](CCCc2cccc[n+]2[O-])C(=O)C[C@H](O)[C@@H](C)[C@@H](/C(C)=C/[C@@H]2CC[C@@H](O)[C@H](OC)C2)OC(=O)[C@@H]2CCCCN2C(=O)C(=O)[C@]2(O)O[C@H]1[C@@H](OC)C[C@H]2C [RapaBlock]
GBM43; day 0, individual mice
  Mouse weight: 22.5 g and 18.4 g and 23.4 g and 24.1 g and 22.4 g and 24.3 g
  Tumor size (measured by bioluminescence): 545000 and 240000 and 88600 and 6780000 and 3240000 and 1560000
GBM43; day 4, individual mice
  Mouse weight: 22.5 g and 20 g and 24 g and 25.1 g and 23.3 g and 25 g
  Tumor size (measured by bioluminescence): 550000 and 781000 and 188000 and 20000000 and 920000 and 2990000
GBM43; day 7, individual mice
  Mouse weight: 22 g and 20 g and 25 g (2×) and 23.4 g and 25.8 g
  Tumor size (measured by bioluminescence): 42300000 and 19300000 and 2230000 and 1130000000 and 47100000 and 178000000
GBM43; day 10, individual mice
  Mouse weight: 21.7 g and 19.6 g and 24.5 g and 24.8 g (2×) and 22.7 g
  Tumor size (measured by bioluminescence): 782000000 and 3210000 and 104000000 and 3810000000 and 1590000000 and 1220000000
GBM43; individual mice
  Mouse survival: 16 days and 17 days and 18 days
mTOR [1]; 4h
  p-4EBP1 Brain, fold relative to no insulin, normalized to GAPDH: 1.83 and 2 and 1.39
  p-4EBP1 Muscle, fold relative to no insulin, normalized to GAPDH: 1.7 and 2.09 and 1.93
  p-RPS6 Brain, fold relative to no insulin, normalized to GAPDH: 1.92 and 2.13 and 3
  p-RPS6 Muscle, fold relative to no insulin, normalized to GAPDH: 2.39 and 2.47 and 2.32
mTOR [1]; 24h
  p-4EBP1 Brain, fold relative to no insulin, normalized to GAPDH: 1.46 and 1.83 and 1.26
  p-4EBP1 Muscle, fold relative to no insulin, normalized to GAPDH: 2.04 and 2.08 and 2.19
  p-RPS6 Brain, fold relative to no insulin, normalized to GAPDH: 1.78 and 1.76 and 3.3
  p-RPS6 Muscle, fold relative to no insulin, normalized to GAPDH: 3.51 and 2.13 and 2.07
mTOR [1]; RapaLink-1 1 mg per kg + candidate 40 mg per kg
  tissue-specific protection from RapaLink-1 (in vivo screen): protected peripheral tissues from RapaLink-1 but allowed potent inhibition of mTOR in the brain
FKBP12; 0.0976562 nM compound
  fluorescence polarization (competition, raw): 114 and 112
FKBP12; 0.195312 nM compound
  fluorescence polarization (competition, raw): 114 and 112
FKBP12; 0.390625 nM compound
  fluorescence polarization (competition, raw): 112 and 110
FKBP12; 0.78125 nM compound
  fluorescence polarization (competition, raw): 110 and 109
FKBP12; 1.5625 nM compound
  fluorescence polarization (competition, raw): 109
FKBP12; 3.125 nM compound
  fluorescence polarization (competition, raw): 100 and 104
FKBP12; 6.25 nM compound
  fluorescence polarization (competition, raw): 86 and 88
FKBP12; 12.5 nM compound
  fluorescence polarization (competition, raw): 74
FKBP12; 25 nM compound
  fluorescence polarization (competition, raw): 64 and 62
FKBP12; 50 nM compound
  fluorescence polarization (competition, raw): 56 and 58
FKBP12; 100 nM compound
  fluorescence polarization (competition, raw): 46 and 55
FKBP12; Extended Data Fig. 4b, n = 3, read-out: Ki(FKBP12)
  Ki: 1.4 nM
FKBP12; Fig. 2d, fluorescein-labelled rapamycin tracer, read-out: FKBP12 Ki
  Ki: 3.1 nM
FKBP12; measured in-house in a single fluorescence polarization experiment, read-out: Kd3 (RapaBlock binding to FKBP)
  Kd: 2.5 nM
FKBP12; recombinant FKBP12, Extended Data Fig. 2, read-out: Kd (FKBP12)
  Kd: 1.6 nM
U87MG; RapaLink-1 1 mg per kg, RapaBlock 40 mg per kg, i.p. every 5 days
  tumour growth and survival: no significant effect on either
U87MG; [3]
  Mouse weight: 23.7 g and 18.4 g and 20.5 g and 22.9 g and 23.2 g and 19.4 g
  Tumor size (measured by bioluminescence): 17700000 and 2260000 and 10400000 and 10700000 and 2010000 and 11600000
U87MG; [4]
  Mouse weight: 25.1 g and 20.4 g and 22.3 g and 25.2 g and 24.1 g and 21.1 g
  Tumor size (measured by bioluminescence): 43100000 and 13000000 and 366000 and 28000000 and 11500000 and 3180000
U87MG; [5]
  Mouse weight: 24.6 g and 21.1 g and 22.5 g and 25.3 g and 23.8 g and 21.3 g
  Tumor size (measured by bioluminescence): 1970000 and 19800000 and 27300000 and 73500000 and 25400000 and 8750000
U87MG; [6]
  Mouse weight: 24.4 g and 21.8 g and 23 g (2×) and 25 g and 21.9 g
  Tumor size (measured by bioluminescence): 1140000000 and 112000000 and 171000000 and 820000000 and 161000000 and 1140000
U87MG; [7]
  Mouse weight: 19.5 g and 24.1 g and 23.9 g and 23.1 g
  Tumor size (measured by bioluminescence): 6750000000 and 1500000000 and 1360000000 and 47000000 and 739000000
U87MG; U87MG-Luc, individual mice
  Mouse survival: 25 days and 21 days and 28 days and 23 days
Human PBMCs; 5 days
  shift of RapaLink-1 IC50 for PBMC proliferation by addition of RapaBlock: more than 100 fold
Human PBMCs; compared with protection from RapaLink-1
  protection of PBMCs from rapamycin-mediated growth inhibition: appeared more effective at protecting PBMCs from rapamycin-mediated growth inhibition
Human PBMCs; constant 10 µM RapaBlock, low RapaLink-1/rapamycin concentrations
  relative proliferation compared to DMSO-treated cells: ~ 100%
NFAT; 0.00512 nM
  NFAT luciferase activity, normalized to DMSO-treated stimulated cells: 93 and 91.3 and 97
NFAT; 0.0256 nM
  NFAT luciferase activity, normalized to DMSO-treated stimulated cells: 97.8 and 104.3 and 98.9
NFAT; 0.128 nM
  NFAT luciferase activity, normalized to DMSO-treated stimulated cells: 95.3 and 89 and 97
NFAT; 0.64 nM
  NFAT luciferase activity, normalized to DMSO-treated stimulated cells: 97.6 and 92.3 and 99.2
NFAT; 16 nM
  NFAT luciferase activity, normalized to DMSO-treated stimulated cells: 100.2 and 101.6 and 105.7
NFAT; 80 nM
  NFAT luciferase activity, normalized to DMSO-treated stimulated cells: 104.1 and 109.3 and 105.3
NFAT; 400 nM
  NFAT luciferase activity, normalized to DMSO-treated stimulated cells: 109.4 and 107.4 and 106.7
NFAT; 2000 nM
  NFAT luciferase activity, normalized to DMSO-treated stimulated cells: 112.3 and 110 and 113.9
NFAT; 10000 nM
  NFAT luciferase activity, normalized to DMSO-treated stimulated cells: 112 and 113.2 and 110.3
NFAT; Fig. 2e
  inhibitory activity for calcineurin: does not exhibit any inhibitory activity for calcineurin
NFAT; Homo sapiens, Jurkat NFAT luciferase, PMA + ionomycin
  IC50: > 10000 nM
mTOR [2]; MCF7, 100:1 stoichiometry RapaBlock:rapamycin
  blocking of rapamycin (phospho-S6 signal): restoring the phospho-S6 signal to the same level as untreated cells
mTOR [2]; MCF7, 4 h, with 10 nM RapaLink-1
  attenuation of RapaLink-1 effects on mTOR signalling: attenuates the pharmacological effects of RapaLink-1 in a dose-dependent manner
mTOR [2]; cultured cells, up to 10 µM
  effect on mTOR signalling by itself: does not affect mTOR signalling by itself
